Assay results from patent US20250154202A1, “CYCLIC EPITOPE TAGS” (BIONTECH SE, priority 2022, published 2025).
Bridge positions count the residues as written; N and C are the ends. Peptide text beside a SMILES is read from it.

Columns and labels:
[1] = tested on: anti-ALFA VHH; assay: binding affinity to the anti-ALFA VHH (log(agonist) vs. response, variable slope); details: for LogEC50: best-fit values, log(agonist) vs. response, variable slope; for EC50: binding to anti-ALFA VHH
[2] = Plasma stability, human plasma
Experimental: Plasma stability measurements were performed by spiking 5 μl of a 1 mM compound stock solution in DMSO into 495 μl of human or mouse Li-heparin plasma (Innovative Research, Cat. No, IPLALIH5OML (human) and IMS-BC-N (Balb C mouse). The spiked plasma was distributed in 50 μl aliquots into capped PCR tubes for incubation at 37° C. At each time point (0, 2, 6, 24 hours*) 3*aliquots were withdrawn from the incubator. Enzymatic reactions were quenched directly after withdrawal by adding 100 μl of acetonitrile/formic acid=99/1 (v/v). Quenched samples were stored at ambient temperature until the end of the incubation period (24 hrs*). After centrifugation, the supernatant was transferred into fresh vials and analyzed by LC-MS/MS in ESI positive mode (Waters ACQUITY UPLC I-Class System (SM-FTN) with Xevo TQD triple quadrupole mass spectrometer with control software Waters MassLynx). […] Values below the limit of quantification (0.1 μM) and outliers of triplicate results were excluded from further calculations. An exponential regression curve was fitted onto the concentration results. Half-life times were calculated from the slope of the regression curve (t1/2=ln(2)/slope).
For some samples, as indicated below, the incubation time was 6 hours. The 24 hour data was measured in triplicates whereas the 6 hour data was measured in duplicates.

[3] = Plasma stability, mouse plasma
[4] = target: NbALFA; assay: SPR measurements of NbALFA binding (Biacore T200, multi cycle kinetics, 1:1 binding model); details: for Kd / ka / kd: 25° C., HBS-EP+ buffer, biotinylated NbALFA captured
Experimental: Affinity measurements were performed using a Biacore T200 (GE Healthcare, Biacore T200 control Software 3.2). […] A freshly docked Biotin CAPture chip was rehydrated overnight in the instrument (standby mode). […] The immobilization of the Nanobody was done for 180 s at 10 μL/min on FC2 followed by quenching of unbound streptavidin by 0.1 mM biocytin for 60 s and 30 μL/min on both flow cells. […] After each cycle, the surface was regenerated for 120 s with 10 μL/min using regeneration solution. All measurements were performed at 25° C. using HBS-EP+ buffer (Cytiva Europe, Cat. no BR100669). The control responses from FC1 were subtracted by the sample measurement in FC2 (FC2−FC1) followed by subtraction of the 0 nM blank injection. Resulting binding curves of this multi cycle kinetic experiment were fitted using the Biacore T200 Evaluation Software 3.2 and a 1:1 binding model.

[5] = Pharmacokinetic study in mouse, intravenous bolus, plasma LC-MS/MS, non-compartmental analysis; details: for AUC(0-inf): AUC0-inf; for AUC(0-t): AUC0-t
Experimental: C57BL/6NRj mice were obtained from Janvier Labs, France. In this study, approximately 8-week-old female mice were used.
Prior to administration into the lateral tail vein, the body weight of the animals was determined to calculate the individual volume of the injecting compound (5 mL/kg body weight). The injection, as well as the blood sampling, were carried out under short anesthesia (0.7 L/min O2, 1.7 L/min N2O, 2% Isoflurane). Blood was sampled from the retro-orbital plexus using microhematocrit capillary (Ø 0.8 mm) and collected into K3EDTA tubes, at the time points indicated in Table 10.
The plasma was separated by centrifugation (10,000×g; 10 min; 4° C.), aliquoted into microtubes and stored at −80° C.
20 μl of each plasma sample was transferred into PCR tubes. 80 μl IS (internal standard)-solution in acetonitrile+1% FA was added for protein precipitation.
The sample tubes were sealed with pierceable cap mats and vortexed. After homogenization for 5 min in an ultrasonic bath the samples were centrifuged at 3000 rpm at ambient temperature for 15 min. 1 μl supernatant was injected into the instrument for LC-MS/MS analysis. For LC-MS/MS quantification a ExionLC™ UHPLC coupled to a QTRAP® 6500+ mass spectrometer (Sciex) was used in ESI positive mode. Parameters for mass spectrometry were listed in the tables below, Chromatographic separation was achieved on a ACQUITY UPLC BEH C18 column (Waters, 1.7 μm, 2.1×50 mm).
Compound concentrations in plasma samples were calculated using a 10-point calibration curve in plasma over a concentration range of 1 to 1000 ng/ml. QC samples of 1, 10, 100, 1000 ng/ml were analyzed before and after each dose group. Samples exceeding the upper limit of quantification (1000 ng/ml) were re-analyzed after 10-fold dilution in blank plasma. All calculations were performed in Sciex OS Version 1.7.0.36606 and MS-EXCEL®.
Pharmacokinetic parameters were calculated for both compounds using the software Kinetica (version 4.4.1, Thermo Scientific) applying a non-compartmental model (NCA).

[6] = human plasma, 37° C., timepoint 0 h
[7] = human plasma, 37° C., timepoint 2 h
[8] = human plasma, 37° C., timepoint 6 h
[9] = human plasma, 37° C., timepoint 24 h
[10] = Balb C, mouse, Li-heparin plasma
[11] = mouse plasma, 37° C., timepoint 0 h
[12] = mouse plasma, 37° C., timepoint 2 h
[13] = mouse plasma, 37° C., timepoint 6 h
[14] = mouse plasma, 37° C., timepoint 24 h
[15] = in vivo, iv, 3 mg/kg, single i.v.
[16] = in vivo, iv, normalized to a dose of 1 mg/kg, given 3 mg/kg i.v.

**Q.** Which results are given for `CC(=O)N[C@@H](CO)C(=O)N[C@@H](CCCNC(=N)N)C(=O)N[C@@H](CC(C)C)C(=O)N[C@@H](CCC(=O)O)C(=O)N[C@H]1CCC(=O)NCCCC[C@@H](C(=O)N[C@@H](CCCNC(=N)N)C(=O)N[C@@H](CCCNC(=N)N)C(=O)N[C@@H](CC(C)C)C(=O)N[C@H](C(=O)N[C@@H](CCC(=O)O)C(N)=O)[C@@H](C)O)NC(=O)[C@H](CC(C)C)NC(=O)[C@H](CCC(=O)O)NC1=O` [SD15192, Ac-Ser-Arg-Leu-Glu-(cyclo5)Glu-Glu-Leu-(cyclo8)Lys-Arg-Arg-Leu-Thr-Glu-NH2] (Ac-SRLEEELKRRLTE-NH2; lactam 5-8)?
**A.** LogEC50 [1]: 0.7765; EC50 [1]: 5.98 nM; Conc. (% of T0) [2, 6]: 100.0 % of T0; Mean (compound concentration) [2, 6]: 2.56; Tube 2 (compound concentration) [2, 6]: 2.471; Tube 3 (compound concentration) [2, 6]: 2.553; Tube 1 (compound concentration) ([2]; human plasma, 37° C., timepoint 0 h, calibration range 0.1 to 10 μM): 2.667; Mean (compound concentration) [2, 7]: 1.76; Tube 1 (compound concentration) [2, 7]: 1.788; Tube 2 (compound concentration) [2, 7]: 1.757; Tube 3 (compound concentration) [2, 7]: 1.731; Mean (compound concentration) [2, 8]: 0.88; Tube 1 (compound concentration) [2, 8]: 0.876; Tube 2 (compound concentration) [2, 8]: 0.868; Tube 3 (compound concentration) [2, 8]: 0.883; Tube 1 (compound concentration) [2, 9]: 0.031; Tube 2 (compound concentration) [2, 9]: 0.036; Tube 3 (compound concentration) [2, 9]: 0.046; remaining at 2 h, 10 µM ([2]; human, human Li-heparin plasma): 68.6%; remaining at 6 h, 10 µM ([2]; human, human Li-heparin plasma): 34.2%; half-life ([2]; human, plasma, Half-life time, human plasma, 37° C., incubation 24 h (triplicates) or 6 h (duplicates)): 233 min; remaining at 2 h, 10 µM [3, 10]: 85.9%; remaining at 6 h, 10 µM [3, 10]: 65.7%; remaining at 24 h, 10 µM [3, 10]: 23.9%; Conc. (% of T0) [3, 11]: 100.0 % of T0; Mean (compound concentration) [3, 11]: 2.70; Tube 2 (compound concentration) [3, 11]: 2.705; Tube 3 (compound concentration) [3, 11]: 2.658; Tube 1 (compound concentration) ([3]; mouse plasma, 37° C., timepoint 0 h, calibration range 0.1 to 10 μM): 2.731; Mean (compound concentration) [3, 12]: 2.32; Tube 1 (compound concentration) [3, 12]: 2.366; Tube 2 (compound concentration) [3, 12]: 2.256; Tube 3 (compound concentration) [3, 12]: 2.33; Mean (compound concentration) [3, 13]: 1.77; Tube 1 (compound concentration) [3, 13]: 1.851; Tube 2 (compound concentration) [3, 13]: 1.679; Tube 3 (compound concentration) [3, 13]: 1.791; Mean (compound concentration) [3, 14]: 0.64; Tube 1 (compound concentration) [3, 14]: 0.637; Tube 2 (compound concentration) [3, 14]: 0.656; Tube 3 (compound concentration) [3, 14]: 0.638; half-life ([3]; mouse, plasma, Half-life time, mouse plasma, 37° C., incubation 24 h (triplicates) or 6 h (duplicates)): 707 min; Kd [4]: 0.0551 nM; ka [4]: 1.05e+07 M⁻¹ s⁻¹; kd [4]: 0.000577 s⁻¹

**Q.** Which half-life ([5]; female, C57BL/6NRj, plasma, iv, 3 mg/kg) does the source give for `CC(=O)N1CCC[C@H]1C(=O)N[C@@H](CO)C(=O)N[C@@H](CCCNC(=N)N)C(=O)N[C@@H](CC(C)C)C(=O)N[C@@H](CCC(=O)O)C(=O)N[C@H]1CCC(=O)NCCCC[C@@H](C(=O)N[C@@H](CCCNC(=N)N)C(=O)N[C@@H](CC(C)C)C(=O)N[C@H](C(=O)N[C@@H](CCC(=O)O)C(N)=O)[C@@H](C)O)NC(=O)[C@H](CCCNC(=N)N)NC(=O)[C@H](CC(C)C)NC(=O)[C@H](CCC(=O)O)NC1=O` [SD15341, Ac-Pro-Ser-Arg-Leu-Glu-(cyclo6)Glu-Glu-Leu-Arg-(cyclo10)Lys-Arg-Leu-Thr-Glu-NH2] (Ac-PSRLEEELRKRLTE-NH2; lactam 6-10) here?
**A.** 6.69 min

**Q.** What about the “area under the curve (AUC) compared to the linear alpha compound” value ([5]; i.v., in words) of the same molecule?
**A.** much higher

**Q.** And the “clearance compared to the linear alpha compound” value ([5]; i.v., in words)?
**A.** drastically reduced

**Q.** And the MRT inf ([5]; in vivo, iv, 3 mg/kg)?
**A.** 4.5 min

**Q.** And the MRT last ([5]; in vivo, iv, 3 mg/kg)?
**A.** 4.47 min

**Q.** And the Tmax ([5]; in vivo, iv, 3 mg/kg)?
**A.** 1 min

**Q.** What about the clearance ([5]; in vivo, iv, 3 mg/kg) of the same molecule?
**A.** 52.8 mL/min/kg

**Q.** What about the AUC(0-inf) [5, 15] of the same molecule?
**A.** 948 ng·h/mL

**Q.** And the AUC(0-t) [5, 15]?
**A.** 947 ng·h/mL

**Q.** And the C0 ([5]; in vivo, iv, 3 mg/kg, C0, single i.v.)?
**A.** 15400 ng/mL

**Q.** And the Cmax [5, 15]?
**A.** 12700 ng/mL

**Q.** And the Vd ([5]; in vivo, iv, 3 mg/kg, Vss, single i.v., 3 mg/kg)?
**A.** 0.237 L/kg

**Q.** And the Vd ([5]; in vivo, iv, 3 mg/kg, Vz, single i.v.)?
**A.** 0.509 L/kg

**Q.** What about the AUC(0-inf) [5, 16] of the same molecule?
**A.** 316 ng·h/mL

**Q.** What about the AUC(0-t) [5, 16] of the same molecule?
**A.** 316 ng·h/mL

**Q.** What about the C0 ([5]; in vivo, iv, C0, normalized to a dose of 1 mg/kg, given 3 mg/kg i.v.) of the same molecule?
**A.** 5130 ng/mL

**Q.** And the Cmax [5, 16]?
**A.** 4240 ng/mL

**Q.** What about the AUCextra ([5]; single i.v., 3 mg/kg) of the same molecule?
**A.** 0.05%

**Q.** And the Vc ([5]; single i.v., 3 mg/kg)?
**A.** 0.195 L/kg

**Q.** And the t1/2effective ([5]; single i.v., 3 mg/kg)?
**A.** 3.10 min

**Q.** What about the t1/2initial ([5]; single i.v., 3 mg/kg) of the same molecule?
**A.** 2.41 min

**Q.** And the λinitial ([5]; single i.v., 3 mg/kg)?
**A.** 0.29 min⁻¹

**Q.** What about the λterminal ([5]; single i.v., 3 mg/kg) of the same molecule?
**A.** 0.10 min⁻¹

**Q.** What about the Kd [4] of the same molecule?
**A.** 0.0194 nM

**Q.** And the ka [4]?
**A.** 1.86e+07 M⁻¹ s⁻¹

**Q.** And the kd [4]?
**A.** 0.000361 s⁻¹

**Q.** And the “binding with respect to NbALFA” value ([4]; in words)?
**A.** very good binding

**Q.** With “Ac-SRLEEELRRRLTE-NH2 [SD15197, Ac-Ser-Arg-Leu-Glu-Glu-Glu-Leu-Arg-Arg-Arg-Leu-Thr-Glu-NH2, reference compound]” as the molecule, how does the LogEC50 [1] read?
**A.** 0.4145

**Q.** What about the EC50 [1] of the same molecule?
**A.** 2.6 nM

**Q.** And the EC50 ([1]; listed as parent linear ALFA peptide)?
**A.** 2.6 nM

**Q.** And the Kd [4]?
**A.** 0.0117 nM

**Q.** And the ka [4]?
**A.** 5.05e+07 M⁻¹ s⁻¹

**Q.** What about the kd [4] of the same molecule?
**A.** 0.000593 s⁻¹
